From patent US20100204224A1, “AZACYCLIC COMPOUNDS AS INHIBITORS OF SENSORY NEURONE SPECIFIC SODIUM CHANNELS” (priority 2005, published 2010)
pIC50: −log10 of the molar value. Like-named read-outs stand apart in the source and are kept apart here.

Target: T1, human Nav1.8 (hNav1.8) ion channel (Homo sapiens, UniProt Q9Y5Y9)
T1 construct: expressed in transfected cells
Test: Inhibition of human Nav1.8 stably expressed in SH-SY-5Y cells (membrane potential dye fluorescence assay)
Assay type: cell-based
Details: FLIPR membrane potential dye, 10 μM pyrethroid, 250 nM TTX, test concentration range 100 μM-0.05 μM
Experimental: Inhibition of Human Nav1.8 stably expressed in SH-SY-5Y Cells
A SH-SY-5Y neuroblastoma cell line stably expressing the human Nav1.8 (hNav1.8) ion channel was constructed. This cell line has been used to develop a medium to high throughput assay for determining the ability of test compounds to inhibit membrane depolarisation mediated via the hNav1.8 channel.
SH-SY-5Y hNav1.8 are grown in adherent monolayer culture using 50:50 Ham's F-12/EMEM tissue culture medium supplemented with 15% (v/v) foetal bovine serum; 2 mM L-glutamine, 1% NEAR and 600 μg·ml^−1 Geneticin sulphate. Cells are removed from the tissue culture flask using trypsin/EDTA and re-plated into black walled, clear bottom 96-well assay plates at 50,000 cells·well^−1 24 hours prior to assay.
On the day of assay the cell assay plates are washed to remove cell culture medium using a sodium free assay buffer (145 mM tetramethyl ammonium chloride; 2 mM calcium chloride; 0.8 mM magnesium chloride hexahydrate; 10 mM HEPES; 10 mM glucose; 5 mM potassium chloride, pH 7.4). Fluorescent membrane potential dye solution (FLIPR™ membrane potential dye, Molecular Devices Corporation), containing 10 μM of a pyrethroid to prevent channel inactivation and 250 nM tetrodotoxin (TTX) to reduce interference from TTX-sensitive sodium channels present in the cell line. Test compound, initially dissolved in dimethyl sulfoxide but further diluted in sodium free buffer, is added to achieve the final test concentration range of 100 μM-0.05 μM.
Cell plates are incubated for 30 minutes at room temperature to allow equilibration of dye and test compound. Plates are then transferred to a fluorescence plate reader for fluorescence measurement using an excitation wavelength of 530 nm whilst measuring fluorescence emission at 565 nm. Baseline fluorescence levels are first determined before the addition of a sodium containing buffer (220 mM sodium chloride; 2 mM calcium chloride; 0.8 mM magnesium chloride hexahydrate; 10 mM HEPES; 10 mM glucose; 5 mM potassium chloride. pH 7.4) to cause membrane depolarisation in those cells where channel block has not been effected (final sodium concentration=72.5 mM). Membrane depolarisation is registered by an increase in fluorescence emission at 565 nm.
The change in fluorescence seen in each test well upon the addition of sodium containing buffer is calculated relative to the baseline fluorescence for that well. This figure is then used for calculating the IC50 for each test compound.

[1] = SH-SY-5Y hNav1.8 cells, read-out: hNav1.8 IC50
[2] = hNav1.8 IC50, SH-SY-5Y hNav1.8 cells

T1 sequence (Q9Y5Y9 whole entry): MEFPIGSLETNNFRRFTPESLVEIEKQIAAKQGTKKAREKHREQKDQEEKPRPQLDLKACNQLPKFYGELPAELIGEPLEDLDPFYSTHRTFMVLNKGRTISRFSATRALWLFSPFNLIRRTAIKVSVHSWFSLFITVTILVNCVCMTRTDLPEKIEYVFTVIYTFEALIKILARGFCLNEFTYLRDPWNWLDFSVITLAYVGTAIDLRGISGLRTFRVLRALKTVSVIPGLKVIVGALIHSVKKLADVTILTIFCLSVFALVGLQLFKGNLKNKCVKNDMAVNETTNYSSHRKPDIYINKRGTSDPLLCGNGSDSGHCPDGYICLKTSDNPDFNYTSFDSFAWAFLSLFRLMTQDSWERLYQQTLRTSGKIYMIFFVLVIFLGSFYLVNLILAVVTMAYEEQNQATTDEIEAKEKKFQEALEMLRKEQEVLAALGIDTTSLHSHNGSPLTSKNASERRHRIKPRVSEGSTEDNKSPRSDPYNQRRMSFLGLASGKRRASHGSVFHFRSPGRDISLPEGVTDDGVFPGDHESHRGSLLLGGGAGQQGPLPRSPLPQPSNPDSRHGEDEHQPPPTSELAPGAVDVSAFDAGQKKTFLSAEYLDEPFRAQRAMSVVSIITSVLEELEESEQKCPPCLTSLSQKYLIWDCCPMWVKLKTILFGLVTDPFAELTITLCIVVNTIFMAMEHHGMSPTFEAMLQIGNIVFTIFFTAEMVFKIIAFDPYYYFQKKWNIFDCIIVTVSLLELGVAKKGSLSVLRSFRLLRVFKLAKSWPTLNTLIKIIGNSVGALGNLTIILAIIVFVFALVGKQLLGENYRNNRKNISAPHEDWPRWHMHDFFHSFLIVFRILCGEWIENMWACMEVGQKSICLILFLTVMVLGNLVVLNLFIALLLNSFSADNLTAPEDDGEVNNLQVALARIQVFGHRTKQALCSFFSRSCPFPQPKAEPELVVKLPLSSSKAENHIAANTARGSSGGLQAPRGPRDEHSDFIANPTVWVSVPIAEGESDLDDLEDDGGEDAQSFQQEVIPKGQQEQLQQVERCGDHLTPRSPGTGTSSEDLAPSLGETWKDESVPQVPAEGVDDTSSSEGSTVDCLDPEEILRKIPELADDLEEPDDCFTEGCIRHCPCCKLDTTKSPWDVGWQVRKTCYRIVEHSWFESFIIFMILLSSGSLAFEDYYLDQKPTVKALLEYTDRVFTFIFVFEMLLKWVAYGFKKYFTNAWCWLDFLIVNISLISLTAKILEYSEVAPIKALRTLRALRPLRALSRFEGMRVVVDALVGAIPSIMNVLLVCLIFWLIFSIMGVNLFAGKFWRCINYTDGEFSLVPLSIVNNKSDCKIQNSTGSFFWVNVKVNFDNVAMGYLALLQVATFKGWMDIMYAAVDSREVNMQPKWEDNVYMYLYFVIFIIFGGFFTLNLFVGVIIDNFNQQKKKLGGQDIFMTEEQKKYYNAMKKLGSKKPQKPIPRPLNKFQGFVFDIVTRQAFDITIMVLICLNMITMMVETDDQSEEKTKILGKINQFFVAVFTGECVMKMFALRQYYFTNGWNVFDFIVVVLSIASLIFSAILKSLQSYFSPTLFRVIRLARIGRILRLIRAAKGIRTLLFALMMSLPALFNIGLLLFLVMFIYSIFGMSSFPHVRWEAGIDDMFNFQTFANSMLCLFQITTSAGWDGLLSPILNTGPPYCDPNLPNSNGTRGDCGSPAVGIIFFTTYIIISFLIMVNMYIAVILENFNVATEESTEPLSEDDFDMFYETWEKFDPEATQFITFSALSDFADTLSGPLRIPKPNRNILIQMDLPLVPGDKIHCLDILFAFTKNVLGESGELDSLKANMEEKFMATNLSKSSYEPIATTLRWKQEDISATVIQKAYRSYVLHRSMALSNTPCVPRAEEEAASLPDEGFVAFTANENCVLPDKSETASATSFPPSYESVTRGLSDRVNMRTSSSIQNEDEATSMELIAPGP

SMILES	pIC50 [1]	pIC50 [2]
Cc1ccccc1C(C)N1CC2CC1CN2C(=O)Nc1ccc(OCCN2CCCC2=O)cc1 (centres unmarked) [Example 23, 5-(1-o-Tolyl-ethyl)-2,5-diaza-bicyclo[2.2.1]heptane-2-carboxylic acid {4-[2-(2-oxo-pyrrolidin-1-yl)-ethoxy]-phenyl}-amide]	≤ 4.52	–
Cc1ccccc1C(C)N1CC2CC1CN2C(=O)Nc1ccc(OC2CCCC2)cc1 (centres unmarked) [Example 24, 5-(1-o-Tolyl-ethyl)-2,5-diaza-bicyclo[2.2.1]heptane-2-carboxylic acid (4-cyclopentyloxy-phenyl)-amide]	6.05	–
Cc1ccccc1C(C)N1CC2CC1CN2C(=O)Nc1ccc(OCC2CCCCO2)cc1 (centres unmarked) [Example 25, 5-(1-o-Tolyl-ethyl)-2,5-diaza-bicyclo[2.2.1]heptane-2-carboxylic acid [4-(tetrahydro-pyran-2-ylmethoxy)-phenyl]-amide]	5.27	–
Cc1ccccc1C(C)N1CC2CC1CN2C(=O)Nc1ccc(OCC2CCCO2)cc1 (centres unmarked) [Example 26, 5-(1-o-Tolyl-ethyl)-2,5-diaza-bicyclo[2.2.1]heptane-2-carboxylic acid [4-(tetrahydro-furan-2-ylmethoxy)-phenyl]-amide]	4.78	–
COCCCOc1ccc(NC(=O)N2CC3CC2CN3C(C)c2ccccc2C)cc1 (centres unmarked) [Example 27, 5-(1-o-Tolyl-ethyl)-2,5-diaza-bicyclo[2.2.1]heptane-2-carboxylic acid [4-(3-methoxy-propoxy)-phenyl]-amide]	5.07	–
C=CCOC(=O)NCCOc1ccc(NC(=O)N2CC3CC2CN3C(C)c2ccccc2C)cc1 (centres unmarked) [Example 28, [2-(4-{[5-(1-o-Tolyl-ethyl)-2,5-diaza-bicyclo[2.2.1]heptane-2-carbonyl]-amino}-phenoxy)-ethyl]-carbamic acid allyl ester]	5.31	–
Cc1ccccc1C(C)N1CC2CC1CN2C(=O)Nc1ccc(Oc2ccccc2)cc1 (centres unmarked) [Example 30, 5-(1-o-Tolyl-ethyl)-2,5-diaza-bicyclo[2.2.1]heptane-2-carboxylic acid (4-phenoxy-phenyl)-amide]	6.49	–
Cc1ccccc1C(C)N1CC2CC1CN2C(=O)Nc1ccc(OCc2ccccc2)cc1 (centres unmarked) [Example 31, 5-(1-o-Tolyl-ethyl)-2,5-diaza-bicyclo[2.2.1]heptane-2-carboxylic acid (4-benzyloxy-phenyl)-amide]	6.22	–
Cc1ccccc1C(C)N1CC2CC1CN2C(=O)Nc1ccc(Oc2ccccc2)cc1 (centres unmarked) [Example 32, 5-(1-o-Tolyl-ethyl)-2,5-diaza-bicyclo[2.2.1]heptane-2-carboxylic acid (4-phenoxy-phenyl)-amide]	6.15	–
Cc1ccccc1C(C)N1CC2CC1CN2C(=O)Nc1ccc(OCc2ccccc2)cc1 (centres unmarked) [Example 33, 5-(1-o-Tolyl-ethyl)-2,5-diaza-bicyclo[2.2.1]heptane-2-carboxylic acid (4-benzyloxy-phenyl)-amide]	6.31	–
Cc1ccccc1C(C)N1CC2CC1CN2C(=O)Nc1ccc(Cc2ccccc2)cc1 (centres unmarked) [Example 34, 5-(1-o-Tolyl-ethyl)-2,5-diaza-bicyclo[2.2.1]heptane-2-carboxylic acid (4-benzyl-phenyl)-amide]	6.19	–
Cc1ccccc1C(C)N1CC2CC1CN2C(=O)Nc1ccc(Cc2ccccc2)cc1 (centres unmarked) [Example 35, 5-(1-o-Tolyl-ethyl)-2,5-diaza-bicyclo[2.2.1]heptane-2-carboxylic acid (4-benzyl-phenyl)-amide]	6.23	–
Cc1ccccc1C(C)N1CC2CC1CN2C(=O)Cc1ccc(Oc2ccccc2)cc1 (centres unmarked) [Example 36, 2-(4-Phenoxy-phenyl)-1-[5-(1-o-tolyl-ethyl)-2,5-diaza-bicyclo[2.2.1]hept-2-yl]-ethanone]	–	6.09
Cc1ccccc1C(C)N1CC2CC1CN2C(=O)Cc1ccc(Oc2ccccc2)cc1 (centres unmarked) [Example 37, 2-(4-Phenoxy-phenyl)-1-[5-(1-o-tolyl-ethyl)-2,5-diaza-bicyclo[2.2.1]hept-2-yl]-ethanone]	–	6.02
Cc1ccccc1C(C)N1CC2CC1CN2C(=O)Nc1ccc(-c2ccccc2)cc1 (centres unmarked) [Example 38, 5-(1-o-Tolyl-ethyl)-2,5-diaza-bicyclo[2.2.1]heptane-2-carboxylic acid biphenyl-4-ylamide]	5.84	–
Cc1ccccc1C(C)N1CC2CC1CN2C(=O)Nc1ccc(-c2ccccc2)cc1 (centres unmarked) [Example 39, 5-(1-o-Tolyl-ethyl)-2,5-diaza-bicyclo[2.2.1]heptane-2-carboxylic acid biphenyl-4-ylamide]	5.97	–
Cc1ccccc1C(C)N1CC2CC1CN2C(=O)Nc1ccc(OC2CCN(Cc3ccccc3)CC2)cc1 (centres unmarked) [Example 40, 5-(1-o-Tolyl-ethyl)-2,5-diaza-bicyclo[2.2.1]heptane-2-carboxylic acid [4-(1-benzyl-piperidin-4-yloxy)-phenyl]-amide]	5.70	–
Cc1ccccc1C(C)N1CC2CC1CN2C(=O)Nc1ccc(OCCN2CCCC2)cc1 (centres unmarked) [Example 41, 5-(1-o-Tolyl-ethyl)-2,5-diaza-bicyclo[2.2.1]heptane-2-carboxylic acid [4-(2-pyrrolidin-1-yl-ethoxy)-phenyl]-amide]	≤ 4.52	–
Cc1ccccc1C(C)N1CC2CC1CN2C(=O)Nc1ccc(OCCc2scnc2C)cc1 (centres unmarked) [Example 42, 5-(1-o-Tolyl-ethyl)-2,5-diaza-bicyclo[2.2.1]heptane-2-carboxylic acid {4-[2-(4-methyl-thiazol-5-yl)-ethoxy]-phenyl}-amide]	5.68	–
Cc1ccccc1C(C)N1CC2CC1CN2C(=O)Nc1ccc(OCCn2ccnc2)cc1 (centres unmarked) [Example 43, 5-(1-o-Tolyl-ethyl)-2,5-diaza-bicyclo[2.2.1]heptane-2-carboxylic acid [4-(2-imidazol-1-yl-ethoxy)-phenyl]-amide]	≤ 4.52	–
Cc1ccccc1C(C)N1CC2CC1CN2C(=O)Nc1ccc(OCCN2CCOCC2)cc1 (centres unmarked) [Example 44, 5-(1-o-Tolyl-ethyl)-2,5-diaza-bicyclo[2.2.1]heptane-2-carboxylic acid [4-(2-morpholin-4-yl-ethoxy)-phenyl]-amide]	4.57	–
Cc1ccccc1C(C)N1CC2CC1CN2C(=O)Nc1ccc(OCCc2ccccn2)cc1 (centres unmarked) [Example 45, 5-(1-o-Tolyl-ethyl)-2,5-diaza-bicyclo[2.2.1]heptane-2-carboxylic acid [4-(2-pyridin-2-yl-ethoxy)-phenyl]-amide]	5.49	–
CC(c1ccc(F)cc1)N1CC2CC1CN2C(=O)Nc1ccc(C(F)(F)F)cc1 (centres unmarked) [Example 46, 5-[1-(4-Fluoro-phenyl)-ethyl]-2,5-diaza-bicyclo[2.2.1]heptane-2-carboxylic acid (4-trifluoromethyl-phenyl)-amide]	5.88	–
CC(c1ccc(F)cc1)N1CC2CC1CN2C(=O)Nc1cccc(C(F)(F)F)c1 (centres unmarked) [Example 47, 5-[1-(4-Fluoro-phenyl)-ethyl]-2,5-diaza-bicyclo[2.2.1]heptane-2-carboxylic acid (3-trifluoromethyl-phenyl)-amide]	5.58	–
CC(c1ccc(F)cc1)N1CC2CC1CN2C(=O)Nc1ccc(Oc2ccccc2)cc1 (centres unmarked) [Example 48, 5-[1-(4-Fluoro-phenyl)-ethyl]-2,5-diaza-bicyclo[2.2.1]heptane-2-carboxylic acid (4-phenoxy-phenyl)-amide]	6.38	–
CC(c1ccc(F)cc1)N1CC2CC1CN2C(=O)Nc1cccc(Oc2ccccc2)c1 (centres unmarked) [Example 49, 5-[1-(4-Fluoro-phenyl)-ethyl]-2,5-diaza-bicyclo[2.2.1]heptane-2-carboxylic acid (3-phenoxy-phenyl)-amide]	5.97	–
